Measured values from paper PMC4284078 (Virology, 2014).

Test: FTIR spectroscopy secondary structure
Type: physicochemical
Conditions: 2 mM peptide in deuterated 10 mM phosphate buffer pD 5.6, 25°C, means of four separate determinations, SE ± 5% or better

| Substance | % Conformation Disordered [%] | % Conformation Turn [%] | % Conformation α-Helix [%] | % Conformation β-Sheet [%] |
| --- | --- | --- | --- | --- |
| Pal-Ahx-Ahx- Arg Cys^S- Arg Phe Arg Val D-Pro Cha His Arg Tyr Arg Cys^S- Arg -CON H2 (disulfide) [HCV6] | 14.40 | 20.39 | 12.34 | 52.87 |
| Cys^S- Ser Phe Arg Val Gly Leu His Glu Tyr Pro Cys^s -CON H2 (disulfide) [HCV3] | 12.04 | 21.96 | 11.60 | 54.34 |
| Val Ser Phe Arg Val Gly Leu His Glu Tyr Pro Val -CON H2 [HCV1] | 23.74 | 31.05 | 2.10 | 43.11 |
| Arg Cys^S- Arg Phe Arg Val D-Pro Cha His Arg Tyr Arg Cys^s Arg -CON H2 (disulfide) [HCV5] | 12.83 | 25.72 | 10.55 | 50.90 |
